From PMC8158265, “Inhibition of catechol-O-methyltransferase by natural pentacyclic triterpenes: structure–activity relationships and kinetic mechanism” (Journal of Enzyme Inhibition and Medicinal Chemistry, 2021)
Read-outs that look alike come from different tables or passages of the source.

Key:
LO-2 cells = assay: Cytotoxicity assay (CCK8); format: cell-based, human; conditions: for IC50: Homo sapiens; for cell survival: up to 100 μM
Procedure: The normal human liver-derived cell line LO-2 were grown in DMEM culture medium supplemented with 10% FBS, penicillin (100 U/mL) and streptomycin ([…]). After culturing to 80% confluence, cells were digested and exactly 100 µL of cell suspension with a cell concentration of 10^4 cells/well was seeded in 96-well plates and incubated in a 5% CO2 humidified atmosphere at 37 °C for 12 h. Then the cells were incubated with 100 μL tested compounds of varying concentrations from 0.25 to 100 μM prepared in FBS-free culture medium for 24 h. Subsequently, CCK-8 was diluted 1:10 with DMEM culture and them was added into the adherent cells and incubated in 37 °C for 2 h. The absorbance at 450 nm was measured by using the multi-mode microplate reader. Cell viability can be calculated by A/A0 × 100% (A and A0 are the absorbance of experimental group and control group, respectively).

[1] = test system: mitochondrial membrane potential of LO-2 cells; assay: Mitochondrial membrane potential assay (JC-10, high-content imaging); format: cell-based, human; conditions: 24 h
Procedure: The cells were cultured as described in the Section 2.3. […] To assess the mitochondria membrane potential, JC-10 (5 μg/mL) was incubated with the cells for 30 min, and Hochest (10 μg/mL) was used to stain nuclei. After removal of culture medium and rinsing three times with PBS, cell imaging and quantitative analysis were performed by high-content imaging analysis (Molecular Devices® ImageXpress Micro 4, the USA).

recombinant human S-COMT [2] = target: T1, recombinant human S-COMT (Homo sapiens, UniProt P21964); assay: Inhibition kinetics of human S-COMT catalysed O-methylation of 3-BTD; format: biochemical; conditions: for Vmax: 200 μM SAM; for Inhibition type: with respect to 3-BTD (catechol site); for α: global fit of mixed inhibition model
T1 construct: made in house
T1 sequence (P21964 1-221 isoform P21964-2): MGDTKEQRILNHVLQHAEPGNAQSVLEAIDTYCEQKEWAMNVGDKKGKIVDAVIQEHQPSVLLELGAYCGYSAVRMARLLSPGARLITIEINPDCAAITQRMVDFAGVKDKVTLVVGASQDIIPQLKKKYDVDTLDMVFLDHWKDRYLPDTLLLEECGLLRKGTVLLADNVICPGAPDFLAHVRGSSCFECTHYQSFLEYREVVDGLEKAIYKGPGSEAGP

recombinant human S-COMT [3] = target: T1, recombinant human S-COMT; assay: COMT activity inhibition assay (enzymatic activity based fluorescence assay, 3-BTD substrate); format: biochemical
[4] = L02, LO-2 cells, 24 h, CCK8, read-out: concentration that led to a 50% decrease of cell viability
[5] = apparent Vmax for 3-BTD with 2.5 μM inhibitor
[6] = apparent Vmax for 3-BTD with 5.0 μM inhibitor
[7] = apparent Vmax for 3-BTD with 7.5 μM inhibitor
[8] = 2.0 μg/mL human S-COMT, 2.0 μM 3-BTD as substrate, 200 μM SAM, mean ± SE, read-out: IC50
[9] = 2.0 μg/mL human S-COMT, 2.0 μM 3-BTD as substrate, 200 μM SAM, mean ± SE

CC1(C)CC[C@]2(C(=O)O)CC[C@]3(C)C(=CC[C@@H]4[C@@]5(C)CC[C@H](O)C(C)(C)[C@@H]5CC[C@]43C)[C@@H]2C1 [Compound 1, Oleanic acid]
IC50 (LO-2 cells; [4]): > 100 µM
cell survival (LO-2 cells; LO-2 cells, CCK8): 95%
effect on MMP ([1]; at 50 μM): did not display a decrease of MMP
Vmax (recombinant human S-COMT [2]; [5]): 8.45 ± 0.29 nmol/min/mg
Vmax (recombinant human S-COMT [2]; [6]): 4.56 ± 0.084 nmol/min/mg
Vmax (recombinant human S-COMT [2]; [7]): 2.20 ± 0.030 nmol/min/mg
Inhibition type (recombinant human S-COMT [2]): Mixed

CC1(C)CC[C@]2(C(=O)O)CC[C@]3(C)C(=CC[C@@H]4[C@@]5(C)CC[C@H](O)[C@@](C)(CO)[C@@H]5CC[C@]43C)[C@@H]2C1 [Compound 2, Hederagenin]
IC50 (recombinant human S-COMT [3]; [8]): 8.37 ± 0.46 µM

CC1(C)CC[C@]2(C(=O)O)CC[C@]3(C)C(=CC[C@@H]4[C@@]5(C)C[C@@H](O)[C@H](O)C(C)(C)[C@@H]5CC[C@]43C)[C@@H]2C1 [Compound 3, Masline acid]
IC50 (recombinant human S-COMT [3]): 10.6 ± 0.96 µM

CC1(C)CCC2(C(=O)O)C(O)CC3(C)C(=CCC4C5(C)CC(O)C(O)C(C)(CO)C5CCC43C)C2C1 (stereo not shown) [Compound 4, Polygalacic acid]
IC50 (recombinant human S-COMT [3]; [9]): N.E.

CC1(C)CC[C@]2(C)CC[C@]3(C)C(=CC[C@@H]4[C@@]5(C)CC[C@@H](O)[C@](C)(C(=O)O)[C@@H]5CC[C@]43C)[C@@H]2C1 [Compound 5, α-Boswellic acid]
IC50 (recombinant human S-COMT [3]; [8]): 29.2 ± 1.65 µM

CC1(C)[C@@H](O)CC[C@]2(C)[C@H]3C(=O)C=C4[C@@H]5C[C@@](C)(C(=O)O)CC[C@]5(C)CC[C@@]4(C)[C@]3(C)CC[C@@H]12 [Compound 6, Glycyrrhetinic acid]
IC50 (recombinant human S-COMT [3]; [8]): 115 ± 11.6 µM

C[C@H]1[C@H](C)CC[C@]2(C(=O)O)CC[C@]3(C)C(=CC[C@@H]4[C@@]5(C)CC[C@H](O)C(C)(C)[C@@H]5CC[C@]43C)[C@H]12 [Compound 7, Ursolic acid]
IC50 (recombinant human S-COMT [3]; [8]): 15.1 ± 1.35 µM
fold lower inhibitory potency than oleanolic acid (1) (recombinant human S-COMT [3]; ratio of IC50 values): ~3 fold

C[C@H]1[C@H](C)CC[C@]2(C(=O)O)CC[C@]3(C)C(=CC[C@@H]4[C@@]5(C)C[C@@H](O)[C@H](O)[C@@](C)(CO)[C@@H]5CC[C@]43C)[C@H]12 [Compound 8, Asiatic acid]
IC50 (recombinant human S-COMT [3]): 43.1 ± 5.92 µM

C[C@H]1[C@H](C)CC[C@]2(C)CC[C@]3(C)C(=CC[C@@H]4[C@@]5(C)CC[C@@H](O)[C@](C)(C(=O)O)[C@@H]5CC[C@]43C)[C@H]12 [Compound 9, β-Boswellic acid]
IC50 (recombinant human S-COMT [3]; [8]): 14.2 ± 0.87 µM

C[C@H]1[C@H](C)CC[C@]2(C)CC[C@]3(C)C(=CC(=O)[C@@H]4[C@@]5(C)CC[C@@H](O)[C@](C)(C(=O)O)[C@@H]5CC[C@]43C)[C@H]12 [Compound 10, 11-Keto-β-Boswellic acid]
IC50 (recombinant human S-COMT [3]; [9]): N.E.

C=C(C)[C@@H]1CC[C@]2(C(=O)O)CC[C@]3(C)[C@H](CC[C@@H]4[C@@]5(C)CC[C@H](O)C(C)(C)[C@@H]5CC[C@]43C)[C@@H]12 [Compound 11, Betulinic acid]
IC50 (recombinant human S-COMT [3]; [8]): 5.07 ± 0.087 µM
IC50 (LO-2 cells; [4]): > 100 µM
cell survival (LO-2 cells; LO-2 cells, CCK8): 95%
Vmax (recombinant human S-COMT [2]; [5]): 9.97 ± 0.20 nmol/min/mg
Vmax (recombinant human S-COMT [2]; [6]): 8.95 ± 0.22 nmol/min/mg
Vmax (recombinant human S-COMT [2]; [7]): 6.06 ± 0.24 nmol/min/mg
α (recombinant human S-COMT [2]; with respect to 3-BTD): 0.39
Ki (recombinant human S-COMT [2]; global fit, with respect to 3-BTD, saturated SAM, read-out: Ki): 5.6 ± 0.33 µM
Inhibition type (recombinant human S-COMT [2]): Mixed

C=C(C)[C@@H]1CC[C@]2(C)CC[C@]3(C)[C@H](CC[C@@H]4[C@@]5(C)CC[C@H](O)C(C)(C)[C@@H]5CC[C@]43C)[C@@H]12 [Compound 12, Lupeol]
IC50 (recombinant human S-COMT [3]; [8]): 7.93 ± 0.47 µM

C=C(C)[C@@H]1CC[C@]2(CO)CC[C@]3(C)[C@H](CC[C@@H]4[C@@]5(C)CC[C@H](O)C(C)(C)[C@@H]5CC[C@]43C)[C@@H]12 [Compound 13, Betulin]
IC50 (recombinant human S-COMT [3]): 8.86 ± 0.46 µM

C=C(C)[C@@H]1CC[C@]2(C=O)CC[C@]3(C)[C@H](CC[C@@H]4[C@@]5(C)CC[C@H](O)C(C)(C)[C@@H]5CC[C@]43C)[C@@H]12 [Compound 14, Betulinic aldehyde]
IC50 (recombinant human S-COMT [3]; [8]): 10 ± 0.63 µM

C=C(C)[C@@H]1CC[C@]2(C(=O)O)CC[C@]3(C)[C@H](CC[C@@H]4[C@@]5(C)CC[C@@H](O)C(C)(C)[C@@H]5CC[C@]43C)[C@@H]12 [Compound 15, Epibetulinic acid]
reduction in COMT-inhibitory potential compared to betulinic acid (11) (recombinant human S-COMT [3]): 50%
IC50 (recombinant human S-COMT [3]; [8]): 9.38 ± 0.37 µM

C=C(C)[C@@H]1CC[C@]2(C(=O)O)CC[C@]3(C)[C@H](CC[C@@H]4[C@@]5(C)CC[C@H](O)[C@@](C)(CO)[C@@H]5CC[C@]43C)[C@@H]12 [Compound 16, 23-Hydroxybetulinic acid]
IC50 (recombinant human S-COMT [3]; [8]): 31.4 ± 2.42 µM

C=C(C)[C@@H]1CC[C@]2(C(=O)O)CC[C@]3(C)[C@H](CC[C@@H]4[C@@]5(C)CCC(=O)C(C)(C)[C@@H]5CC[C@]43C)[C@@H]12 [Compound 17, Betulonic acid]
IC50 (recombinant human S-COMT [3]; [8]): 11.1 ± 0.51 µM

CC1=C(O)C(=O)C=C2C1=CC=C1[C@@]2(C)CC[C@@]2(C)[C@@H]3C[C@](C)(C(=O)O)CC[C@]3(C)CC[C@]12C [Compound 18, Celastrol]
IC50 (recombinant human S-COMT [3]): 3.89 ± 0.15 µM
IC50 (LO-2 cells; L02, 24 h, read-out: concentration that led to a 50% decrease of cell viability, LO-2 cells, 24 h, CCK8): 2.4 µM
fold more potent cytotoxicity than tolcapone (LO-2 cells; LO-2 cells, CCK8): 12 fold
Ki (recombinant human S-COMT [2]): 3.5 ± 0.51 µM
Vmax (recombinant human S-COMT [2]; [5]): 7.91 ± 0.16 nmol/min/mg
Vmax (recombinant human S-COMT [2]; [6]): 4.39 ± 0.10 nmol/min/mg
Vmax (recombinant human S-COMT [2]; [7]): 2.54 ± 0.047 nmol/min/mg
α (recombinant human S-COMT [2]; with respect to 3-BTD): 0.20
Inhibition type (recombinant human S-COMT [2]): Mixed

Cc1c(O)c(O)cc2c1CC=C1C2(C)CCC2(C)C3CC(C)(C(=O)O)CCC3(C)CCC12C (stereo not shown) [Compound 19, Hydrocelastrol]
IC50 (recombinant human S-COMT [3]): 12.6 ± 0.73 µM

C[C@H]1C(=O)CC[C@@H]2[C@]1(C)CC[C@H]1[C@@]2(C)CC[C@@]2(C)[C@@H]3CC(C)(C)CC[C@]3(C)CC[C@]12C [Compound 20, Friedelin]
IC50 (recombinant human S-COMT [3]; [9]): N.E.

CCN(CC)C(=O)/C(C#N)=C/c1cc(O)c(O)c([N+](=O)[O-])c1 [Entacapone, entacapone, reference compound]
IC50 (LO-2 cells; [4]): > 100 µM

Oc1cc(O)c2c(c1)O[C@H](c1ccc(O)c(O)c1)[C@H](O)C2 [Epicatechin, reference compound]
IC50 (recombinant human S-COMT [3]; [8]): 9.57 ± 0.55 µM

O=c1c(O)c(-c2ccc(O)c(O)c2)oc2cc(O)cc(O)c12 [Quercetin, reference compound]
IC50 (recombinant human S-COMT [3]): 3.23 ± 0.11 µM

Cc1ccc(C(=O)c2cc(O)c(O)c([N+](=O)[O-])c2)cc1 [Tolcapone, tolcapone, reference compound]
IC50 (LO-2 cells; [4]): 28 to 38 µM
reduction in membrane potential ([1]; 10 μM): 50%
